Experimental data as given in ChEMBL document CHEMBL3600382, “A-ring substituted 17β-arylsulfonamides of 17β-aminoestra-1,3,5(10)-trien-3-ol as highly potent reversible inhibitors of steroid sulfatase” (Bioorg Med Chem, 2015).

Tested on: MCF7
Experiment: Cytotoxicity against human MCF7 cells assessed as inhibition of cell growth at 10 uM after 96 hrs by Cell Titer 96 Aqueous One solution Cell proliferation assay relative to control
Format: functional
Settings: MCF7, 96 h, read-out: GI

C[C@]12CC[C@@H]3c4ccc(O)cc4CC[C@H]3[C@@H]1CC[C@@]2(O)Cc1ccccc1
inhibition of growth at 10 µM: 51%
